Literature values in patent US20150223465A1, “COMPOSITION CONTAINING 3-CYCLOPROPYL-1-ENYL-PROPANOIC ACID SALTS AND A CARRIER” (Yissum Research Development Company of the Hebrew …, priority 2012, published 2015).

Experiments:
[1] = tested on: cut mini carnation flowers; settings: cited from earlier work; for inhibition of the action of ethylene: applied as aqueous solutions to cut mini carnation flowers; for activity as plant ethylene antagonist: in a vapor phase
cut flowers = settings: cited from earlier work

Compound	inhibition of the action of ethylene [1]	activity as plant ethylene antagonist [1]	effect on fresh weight of cut flowers during vase life (cut flowers; about 1.5 mM NaHCO3 combined with CuSO4)	effect on hydraulic stem resistance or transpiration rate (cut flowers; in vase water of cut flowers)
CC1=CC1C(=O)O (stereo not drawn) [2-methylcycloprop-2-ene-1-carboxylic acid]	did not inhibit	active	–	–
O=C(O)CCC1=CC1 [3-cycloprop-1-en-1-ylpropanoic acid]	did not inhibit	active	–	–
O=C([O-])O.[Na+] [NaHCO3, sodium bicarbonate]	–	–	positively affected	no effect
O=C(O)C1C=C1 [cycloprop-2-ene-1-carboxylic acid]	did not inhibit	active	–	–
CC(C)N.O=C(O)CCC1=CC1 [propan-2-aminium 3-cycloprop-1-en-1-ylpropanoate]	some ethylene sensitivity but the test results were variable	–	–	–
